Data from ChEMBL document CHEMBL3045546, “Synthesis and antimicrobial screening of 4-thiazolidinone and 2-azetidinone derivatives of piperazine” (2013).

Tests used:
Format in all cases: functional
Trichoderma viride = assay: Antimicrobial activity against Hypocrea rufa ATCC 52440 assessed as growth inhibition by broth dilution method
Staphylococcus aureus = assay: Antimicrobial activity against Staphylococcus aureus ATCC 25923 assessed as growth inhibition by broth dilution method
Trichophyton longifusum = assay: Antimicrobial activity against Trichophyton longifusum ATCC 22397 assessed as growth inhibition by broth dilution method
Micrococcus luteus = assay: Antimicrobial activity against Micrococcus luteus ATCC 4698 assessed as growth inhibition by broth dilution method
[1] = system: Staphylococcus epidermidis; assay: Antimicrobial activity against Staphylococcus epidermidis ATCC 12228 assessed as growth inhibition by broth dilution method
Escherichia coli = assay: Antimicrobial activity against Escherichia coli ATCC 25922 assessed as growth inhibition by broth dilution method
Klebsiella pneumoniae = assay: Antimicrobial activity against Klebsiella pneumoniae ATCC 13883 assessed as growth inhibition by broth dilution method
Bacillus pumilus = assay: Antimicrobial activity against Bacillus pumilus ATCC 14884 assessed as growth inhibition by broth dilution method
Salmonella typhi = assay: Antimicrobial activity against Salmonella enterica subsp. enterica serovar Typhi ATCC 19430 assessed as growth inhibition by broth dilution method
Proteus vulgaris = assay: Antimicrobial activity against Proteus vulgaris ATCC 13315 assessed as growth inhibition by broth dilution method
Bacillus subtilis = assay: Antimicrobial activity against Bacillus subtilis ATCC 6633 assessed as growth inhibition by broth dilution method
Fusarium solani = assay: Antimicrobial activity against Fusarium solani ATCC 38136 assessed as growth inhibition by broth dilution method
Aspergillus fumigatus = assay: Antimicrobial activity against Aspergillus fumigatus assessed as growth inhibition by broth dilution method
Staphylococcus hominis = assay: Antimicrobial activity against Staphylococcus hominis ATCC 27844 assessed as growth inhibition by broth dilution method
Aspergillus flavus = assay: Antimicrobial activity against Aspergillus flavus ATCC 15517 assessed as growth inhibition by broth dilution method
Rhizoctonia solani = assay: Antimicrobial activity against Rhizoctonia solani ATCC 76131 assessed as growth inhibition by broth dilution method
Bacillus cereus = assay: Antimicrobial activity against Bacillus cereus ATCC 11778 assessed as growth inhibition by broth dilution method
Alternaria alternata = assay: Antimicrobial activity against Alternaria alternata ATCC 66868 assessed as growth inhibition by broth dilution method
Aspergillus niger = assay: Antimicrobial activity against Aspergillus niger ATCC 9142 assessed as growth inhibition by broth dilution method
Aspergillus awamori = assay: Antimicrobial activity against Aspergillus awamori ATCC 22342 assessed as growth inhibition by broth dilution method
Pseudomonas aeruginosa = assay: Antimicrobial activity against Pseudomonas aeruginosa ATCC 10145 assessed as growth inhibition by broth dilution method
Microsporum canis = assay: Antimicrobial activity against Arthroderma otae ATCC 11622 assessed as growth inhibition by broth dilution method
Proteus mirabilis = assay: Antimicrobial activity against Proteus mirabilis ATCC 49565 assessed as growth inhibition by broth dilution method
Candida albicans = assay: Antimicrobial activity against Candida albicans ATCC 10231 assessed as growth inhibition by broth dilution method

Measured: MIC

COc1ccc(C2SCC(=O)N2CCN2CCNCC2)cc1 (centres undefined)
4.68 µg/mL: Salmonella typhi | Staphylococcus hominis | Bacillus cereus
18.8 µg/mL: Trichophyton longifusum | Fusarium solani | Aspergillus flavus | Alternaria alternata | Aspergillus niger | Microsporum canis
9.73 µg/mL: Trichoderma viride | Aspergillus fumigatus | Rhizoctonia solani | Aspergillus awamori | Candida albicans
9.37 µg/mL: all other assays above

COc1cc(C2C(Cl)C(=O)N2CCN2CCN(C(=O)CCl)CC2)ccc1O (centres undefined)
4.68 µg/mL: Micrococcus luteus | Salmonella typhi | Pseudomonas aeruginosa
18.8 µg/mL: Trichoderma viride | Fusarium solani | Aspergillus fumigatus | Alternaria alternata | Aspergillus niger | Aspergillus awamori | Microsporum canis
9.37 µg/mL: all other assays above

O=C1CSC(c2ccccc2O)N1CCN1CCNCC1 (centres undefined)
300 µg/mL: Trichoderma viride | Trichophyton longifusum | Fusarium solani | Aspergillus niger | Aspergillus awamori | Microsporum canis
75 µg/mL: [1] | Escherichia coli | Klebsiella pneumoniae | Salmonella typhi | Bacillus subtilis | Staphylococcus hominis | Bacillus cereus | Pseudomonas aeruginosa
150 µg/mL: all other assays above

O=C(CCl)N1CCN(CCN2C(=O)C(Cl)C2c2ccccc2O)CC1 (centres undefined)
75 µg/mL: Staphylococcus aureus | Micrococcus luteus | Bacillus pumilus | Salmonella typhi | Proteus vulgaris | Pseudomonas aeruginosa | Proteus mirabilis
150 µg/mL: [1] | Escherichia coli | Klebsiella pneumoniae | Bacillus subtilis | Staphylococcus hominis | Bacillus cereus
300 µg/mL: all other assays above

O=C(CCl)N1CCN(CCN2C(=O)C(Cl)C2c2ccc(O)cc2)CC1 (centres undefined)
4.68 µg/mL: Escherichia coli | Proteus vulgaris
18.8 µg/mL: Trichophyton longifusum | Fusarium solani | Alternaria alternata | Candida albicans
9.37 µg/mL: all other assays above

COc1ccc(C2C(Cl)C(=O)N2CCN2CCN(C(=O)CCl)CC2)cc1 (centres undefined)
18.8 µg/mL: Trichoderma viride | Fusarium solani | Aspergillus niger | Microsporum canis | Candida albicans
4.68 µg/mL: [1] | Escherichia coli | Staphylococcus hominis
9.37 µg/mL: all other assays above
